Structures are written as SMILES. Activity calls are given as the source filed them. The rule behind the calls is not given here.

In one test the target is Eukaryotic translation initiation factor 4E (Mus musculus) + Eukaryotic translation initiation factor 4 gamma 1 (Homo sapiens) (UniProt P63073+Q04637). Briefly: blockers of eIF4G binding by eIF4E – biochemical, TR-FRET, dose response (AID 855). The following applies: TR-FRET 665/620 nm. (In general: In TR-FRET formats the signal depends on donor and acceptor labels being close together.)
Sequence of Eukaryotic translation initiation factor 4E (Mus musculus) + Eukaryotic translation initiation factor 4 gamma 1 (Homo sapiens) (P63073 whole entry, looked up): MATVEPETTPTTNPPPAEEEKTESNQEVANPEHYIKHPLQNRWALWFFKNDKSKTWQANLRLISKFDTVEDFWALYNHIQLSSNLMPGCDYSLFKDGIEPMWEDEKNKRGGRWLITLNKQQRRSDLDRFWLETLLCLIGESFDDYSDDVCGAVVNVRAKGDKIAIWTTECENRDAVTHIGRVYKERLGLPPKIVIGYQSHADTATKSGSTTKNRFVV
Sequence of Eukaryotic translation initiation factor 4E (Mus musculus) + Eukaryotic translation initiation factor 4 gamma 1 (Homo sapiens) (Q04637 whole entry, looked up): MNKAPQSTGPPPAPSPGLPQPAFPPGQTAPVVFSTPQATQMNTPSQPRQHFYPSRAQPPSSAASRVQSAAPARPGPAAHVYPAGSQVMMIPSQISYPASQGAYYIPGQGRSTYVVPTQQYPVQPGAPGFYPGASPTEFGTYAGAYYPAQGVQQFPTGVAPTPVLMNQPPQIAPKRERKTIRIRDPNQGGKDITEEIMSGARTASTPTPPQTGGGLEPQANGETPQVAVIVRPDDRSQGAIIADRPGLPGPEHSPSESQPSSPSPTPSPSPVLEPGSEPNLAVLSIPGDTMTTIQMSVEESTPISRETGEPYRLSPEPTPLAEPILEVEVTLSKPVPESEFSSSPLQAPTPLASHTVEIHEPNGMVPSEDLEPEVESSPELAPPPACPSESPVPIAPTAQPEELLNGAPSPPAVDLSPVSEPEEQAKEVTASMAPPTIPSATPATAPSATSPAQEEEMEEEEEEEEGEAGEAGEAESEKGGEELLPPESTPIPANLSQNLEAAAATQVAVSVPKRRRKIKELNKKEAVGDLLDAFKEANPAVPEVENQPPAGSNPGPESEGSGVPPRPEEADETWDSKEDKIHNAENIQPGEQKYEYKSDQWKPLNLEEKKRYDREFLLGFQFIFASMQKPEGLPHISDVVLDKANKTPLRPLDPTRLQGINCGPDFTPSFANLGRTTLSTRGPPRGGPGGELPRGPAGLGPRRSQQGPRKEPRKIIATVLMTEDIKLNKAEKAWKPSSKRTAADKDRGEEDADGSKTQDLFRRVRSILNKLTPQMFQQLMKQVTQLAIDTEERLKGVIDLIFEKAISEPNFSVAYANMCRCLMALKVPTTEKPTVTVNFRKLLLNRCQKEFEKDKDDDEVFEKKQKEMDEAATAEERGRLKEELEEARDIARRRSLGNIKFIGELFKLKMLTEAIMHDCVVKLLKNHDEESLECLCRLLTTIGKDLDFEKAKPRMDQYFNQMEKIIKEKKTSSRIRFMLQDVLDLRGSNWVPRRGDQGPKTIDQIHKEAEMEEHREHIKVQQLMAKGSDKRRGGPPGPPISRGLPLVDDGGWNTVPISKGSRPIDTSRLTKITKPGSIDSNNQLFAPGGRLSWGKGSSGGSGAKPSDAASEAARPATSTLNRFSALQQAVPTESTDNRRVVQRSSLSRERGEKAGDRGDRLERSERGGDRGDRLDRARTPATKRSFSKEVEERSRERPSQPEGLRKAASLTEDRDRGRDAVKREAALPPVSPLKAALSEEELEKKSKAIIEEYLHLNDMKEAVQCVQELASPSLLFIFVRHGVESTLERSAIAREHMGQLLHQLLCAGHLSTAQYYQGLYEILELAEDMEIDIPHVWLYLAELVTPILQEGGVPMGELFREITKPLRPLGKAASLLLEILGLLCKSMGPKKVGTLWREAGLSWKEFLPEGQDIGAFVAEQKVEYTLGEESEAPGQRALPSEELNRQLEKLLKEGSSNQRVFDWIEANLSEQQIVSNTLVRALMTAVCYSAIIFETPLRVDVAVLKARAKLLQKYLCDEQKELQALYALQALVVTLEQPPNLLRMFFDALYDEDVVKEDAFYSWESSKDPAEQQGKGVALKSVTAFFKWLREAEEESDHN
Broadly, the IC50 is the point on the concentration scale where inhibition reaches its midpoint. As to `O=C1CC(c2ccco2)CC(O)=C1C=Nc1cc(Cl)cc(Cl)c1` (stereo not given), the IC50 was > 64 µM (inactive).

Staying with this test, now noted: TR-FRET 665/620 nm, at 64 µM (top of the series).
`CCN(CC)S(=O)(=O)c1ccc(Cl)c(C(=O)Oc2cccnc2)c1`: the “percent of control, lower = inhibition” value was “inactive”.
The same measure, in the same setting: next, `CCC(C(=O)NC(C)CCc1ccco1)n1nc(C)n2c(cc3occc32)c1=O` (stereo not given): “inactive”; `O=C(NC1CCCC1)c1cnc2n(c1=O)CCS2`: “inactive”; `CCN=C(N/N=C/c1ccc([N+](=O)[O-])cc1)SC`: “inactive”.
Regarding `Cc1cc(NC(=O)CSc2ccccc2)no1`, the “percent of control, lower = inhibition” value is “inactive”.
Consider `COc1ccc(C(=O)Nc2ccc3oc(Cc4ccc(Cl)cc4)nc3c2)cc1OC`, for which the “percent of control, lower = inhibition” value was “inactive”.
The same measure, in the same setting: next, `COc1c(Cl)cc(-c2noc(C)c2C(=O)NC(C)C)cc1Cl`: “inactive”; `O=C(CCn1[nH]c(=O)c2ccccc2c1=O)NCCO`: “inactive”; `O=C(OCCN1C(=O)c2cccc3c(N4CCOCC4)ccc(c23)C1=O)c1cc(Cl)cc(Cl)c1`: “inactive”.
Turning to `CC(=O)Nc1ccc(S(=O)(=O)NNC(=O)COc2cccc(C)c2)cc1`, the “percent of control, lower = inhibition” value was “inactive”.
For `CCNC(=O)c1ccc(CSc2ccc(Cl)cc2)cc1`, the “percent of control, lower = inhibition” value was “inactive”.
On to `O=C(CSCC(=O)Nc1ccc2ccccc2c1)NCc1ccccc1`, for which the “percent of control, lower = inhibition” value is “inactive”.
Same read-out and setting: the value for `Cc1nn(CCC#N)c2c1P(=S)(N1CCCC1)OC(c1ccc(F)cc1)=N2` (stereo not given) was “inactive”; that for `CC(=O)Nc1ccnc(-c2cccnc2)n1` was “inactive”.
Same read-out and setting: next, `CCOC(=O)c1ccccc1NC(=O)Cn1cnc2c(nnn2-c2ccc(C)cc2)c1=O`: “inactive”; `Cc1[nH]n(-c2ccccc2)c(=S)c1C=Nc1cccc([N+](=O)[O-])c1`: “inactive”.
For `Cc1noc(C)c1CSc1nc2cc(S(=O)(=O)N3CCOCC3)ccc2o1`, the “percent of control, lower = inhibition” value was “inactive”.
Same read-out and setting: next, `CCn1c(C2CC(=O)N(Cc3ccccc3)C2)nc2ccccc21` (stereo not given): “inactive”.
The same measure, in the same setting: next, `N#C/C(=C\c1sc(N2CCOCC2)nc1-c1ccccc1)C(=O)Nc1cccc2ccccc12`: “inactive”.
Same read-out and setting: the value for `CCn1c2ccccc2c2nc3cc(S(=O)(=O)N4CCOCC4)ccc3nc21` was “inactive”; that for `CCOC(=O)C(C)n1ncn2cccc2c1=O` (stereo not given) was “inactive”; that for `CN1CCCN(Cc2ccccc2C(F)(F)F)CC1` was “inactive”.
On to `O=C(/N=C1\NC(=O)C(F)(C(F)(F)F)S1)NC1CCCCC1` (stereo not given), for which the “percent of control, lower = inhibition” value was “inactive”.
Still for that read-out and setting: the value for `CCOC(=O)c1c(NC(=O)c2cc(-c3ccc(O)cc3)on2)sc(C(C)=O)c1C` was “inactive”; that for `C=CCNC(=O)COc1cc(C)ccc1C` was “inactive”.
On the same count and under the same terms, next, `O=C(Nc1nnc(C23CC4CC(CC(C4)C2)C3)s1)c1ccc(N2C(=O)CCC2=O)cc1`: “inactive”; `O=C(N/N=C/c1ccccc1O)c1cc(=O)[nH]c2ccccc12`: “inactive”.
Still for that read-out and setting: the value for `COc1cc(CC(=O)Nc2ccc3c(c2)CCC3)cc(OC)c1OC` was “inactive”; that for `CCOc1ccc(-c2nc(=S)[nH][nH]2)cc1` was “inactive”.

The record behind these values is PubChem BioAssay AID855 (Emory University Molecular Libraries Screening Center, 2007).
